{"source": "patent US20050113296A1", "about": "“Methods for identifying antimicrobial agents, the agents identified therewith and methods of using same” (priority 2001, published 2005)", "target": "T1, E. coli yfhC polypeptide (Escherichia coli, UniProt P68398)", "T1 construct": "made in house; negative controls used a pBAD-derived vector", "T1 sequence (P68398 whole entry)": "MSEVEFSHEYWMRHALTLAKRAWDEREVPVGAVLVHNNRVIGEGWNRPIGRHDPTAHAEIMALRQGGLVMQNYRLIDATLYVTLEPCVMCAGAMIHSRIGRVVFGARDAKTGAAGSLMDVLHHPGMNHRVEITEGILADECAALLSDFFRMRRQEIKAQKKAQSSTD", "assay": "yfhC polypeptide deamination of a defined substrate, inosine monitored by HPLC of the digest", "assay_type": "biochemical", "conditions": "2 μg yfhC polypeptide (cell lysate), 20 μg stem loop or 8 μg tRNA^Arg2, 50 μl, 30 min", "description": "The experimental protocol consisted of two steps. First an in vitro reaction was conducted using a defined yfhC substrate and the yfhC polypeptide supplied as a lysate from an over-producing strain of bacteria. The reactions were then digested enzymatically to mononucleotides with a mixture of three enzymes (nuclease P1, snake venom phosphodiesterase and alkaline phosphatase and the resultant digest analyzed by HPLC to monitor for the appearance of inosine (the product of the yfhC polypeptide deamination reaction).\nIn this experiment, a series of reactions were run with a synthetic RNA corresponding to the following anticodon stem loop 17-mer of E. coli tRNA^Arg2, in both the linear and folded form (the anticodon is underlined):\nAll reactions were carried out with the indicated amounts of yfhC substrate and yfhC polypeptide (in the form of a cell lysate) in a final volume of 50 μl. For experiments employing refolded yfhC substrate, the substrate was first boiled and slowly cooled in refolding buffer (30 mM HEPES, pH 7.9, 150 mM NaCl, 10 mM Mg Cl2) prior to adding to the reaction mixture. […] The pellets were resuspended in 50 μl H2O, digested with a mixture of nuclease P1, snake venom phosphodiesterase 1 and alkaline phosphatase (all enzymes in excess) and analyzed by HPLC (Develosil C-30 column, 2 mm×250 mm; Nomura Chemical, Japan). […]", "data": [{"substance": "stem loop: synthetic RNA 17-mer corresponding to the anticodon stem loop of E. coli tRNA^Arg2, linear and refolded; yfhC substrate (CNCGGCNACGAACCGAG; RNA, backbone, methylation of C and the base at N not given here; n positions are unspecified nucleotides, further chemistry not fully specified)", "values": [{"measurement": "activity as yfhC substrate (inosine peak in HPLC elution profile)", "value": "greatest-activity"}]}]}
